Laboratory results as given in US20140343017A1, “PYRROLE COMPOUND” (Kabushiki Kaisha Yakult Honsha, priority 2012, published 2014).

Test system: PTX-resistant H460/PV2-7 cells
Assay: Inhibitory effect on growth of PTX-resistant tumor cell line highly expressing TUBB3 (in vitro)
Type: cell-based, human
Conditions: for Resistance rate: H460/PV2-7 versus parent line H460; for IC50: Homo sapiens, NCI-H460, H460/PV2-7 cells, 96 hours culture, WST-8

Compound	Resistance rate	IC50 [nM]	Resistance rate (listed as PTX)
CO[C@H]1C(=O)[C@]2(C)[C@@H](OC)C[C@H]3OC[C@@]3(OC(C)=O)[C@H]2[C@H](OC(=O)c2ccccc2)[C@]2(O)C[C@H](OC(=O)[C@H](O)[C@@H](NC(=O)OC(C)(C)C)c3ccccc3)C(C)=C1C2(C)C [Cabazitaxel, cabazitaxel]	3.2	4	
Cc1c(-c2nnn(CCO)n2)[nH]c(CO)c1C(=O)c1cccc(Br)c1 [Compound 121, (3-bromophenyl)(5-(2-(2-hydroxyethyl)-2H-tetrazol-5-yl)-2-(hydroxymethyl)-4-methyl-1H-pyrrol-3-yl)methanone]	0.27	20.6	
CNC(=O)c1[nH]c(-c2nnn(CCO)n2)c(C)c1C(=O)c1cccc(Br)c1 [Compound 142, 3-(3-bromobenzoyl)-5-(2-(2-hydroxyethyl)-2H-tetrazol-5-yl)-N,4-dimethyl-1H-pyrrole-2-carboxamide]	0.29	108	
CC(=O)O[C@@]12CO[C@@H]1C[C@H](O)[C@@]1(C)C(=O)[C@H](O)C3=C(C)[C@@H](OC(=O)[C@H](O)[C@@H](NC(=O)OC(C)(C)C)c4ccccc4)C[C@@](O)([C@@H](OC(=O)c4ccccc4)[C@H]21)C3(C)C [Docetaxel, docetaxel]	2.6	4	
Cc1c(-c2nnn(CCO)n2)[nH]c(C(C)O)c1C(=O)c1cccc(Br)c1 (stereo not shown) [Compound 123, (3-bromophenyl)(2-(1-hydroxyethyl)-5-(2-(2-hydroxyethyl)-2H-tetrazol-5-yl)-4-methyl-1H-pyrrol-3-yl)methanone]	0.31	21	
CC(=O)O[C@H]1C(=O)[C@@]2(C)[C@H]([C@H](OC(=O)c3ccccc3)[C@]3(O)C[C@H](OC(=O)[C@H](O)[C@@H](NC(=O)c4ccccc4)c4ccccc4)C(C)=C1C3(C)C)[C@]1(OC(C)=O)CO[C@@H]1C[C@@H]2O [Paclitaxel, paclitaxel, reference compound]	4.6	16.5	approximately 4.6
